These results are taken from patent US20220184081A1, “ANTIPRURITIC AGENT USING PAC1 RECEPTOR ANTAGONIST” (KAGOSHIMA UNIVERSITY, priority 2019, published 2022).

No end group written: not given here.

One test deals with T1, mouse PAC1 receptor (Mus musculus, UniProt P70205).
T1 construct: expressed in transfected cells; host or cells: CHO cells
T1 sequence (P70205 21-496): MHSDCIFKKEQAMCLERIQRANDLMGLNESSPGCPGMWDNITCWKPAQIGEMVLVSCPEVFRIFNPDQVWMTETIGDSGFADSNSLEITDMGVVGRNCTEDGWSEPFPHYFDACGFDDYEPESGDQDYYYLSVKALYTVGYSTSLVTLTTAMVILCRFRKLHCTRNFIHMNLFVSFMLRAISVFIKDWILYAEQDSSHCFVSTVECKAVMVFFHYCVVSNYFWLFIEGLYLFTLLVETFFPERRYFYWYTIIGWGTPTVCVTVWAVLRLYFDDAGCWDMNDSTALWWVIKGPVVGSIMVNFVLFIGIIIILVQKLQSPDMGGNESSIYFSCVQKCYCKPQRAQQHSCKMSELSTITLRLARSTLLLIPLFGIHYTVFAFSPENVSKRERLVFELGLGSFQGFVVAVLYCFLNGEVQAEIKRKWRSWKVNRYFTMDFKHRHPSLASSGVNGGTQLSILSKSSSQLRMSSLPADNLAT
Briefly: CREB phosphorylation by PACAP stimulus, Western blot, PAC1/CHO cells. It counts as cell-based. The settings on record: PAC1/CHO cells; for CREB phosphorylation by PACAP (1 nM): compound 10 pM to 10 nM for 30 minutes before PACAP, FIG. 4A, 4C, 4D, 5. The protocol: The effect of each compound on the phosphorylation of CREB (cAMP-responsive element-binding protein) produced by a PACAP stimulus was examined by Western blot analysis using an anti-phosphorylated CREB (pCREB) antibody with a mouse PAC1 receptor-expressing CHO cells (PAC1/CHO cells) and a mouse VPAC1 receptor-expressing CHO cells (VPAC1/CHO cells).
Specifically, treatment with a compound (PA-8, compound 2j and compound 2o) at 10 pM to 10 nM or a solvent therefor, DMSO (VEH: 0.1% DMSO-containing phosphate buffer solution) was performed for 30 minutes, 1 nM PACAP was then added, and protein was recovered within 30 minutes after a PACAP stimulus.
The effect of each compound on the phosphorylation of CREB (cAMP-responsive element-binding protein) produced by a PACAP stimulus was examined by Western blot analysis using an anti-phosphorylated CREB (pCREB) antibody with a mouse PAC1 receptor-expressing CHO cells (PAC1/CHO cells).
A general note: A western blot detects proteins with antibodies after separation by electrophoresis.

In test [1] the test system is PACAP-induced itch behavior in mice. As to the kind of experiment: Itch behavior induced by PACAP intradermal administration. The settings on record: for biting, licking or scratching behavior induced by PACAP (100 pmol) intradermal administration: simultaneous intradermal administration with PACAP, 0.01 to 1 nmol, FIG. 7A, 8, 9. In kind it is in vivo, mouse. The text has this:
SLN indicates intradermal administration of normal saline. DMSO (10% solution, dissolved in normal saline) is a solvent for PA-8.
SLN indicates intradermal administration of normal saline. VEH (10% DMSO solution, dissolved in normal saline) is a solvent for PA-8 and the compound 2o.
SLN indicates intradermal administration of normal saline. VEH (10% DMSO solution, dissolved in normal saline) is a solvent for PA-9 and the compound 3d.

The test system of test [2] is chloroquine-induced itch behavior in mice. Briefly: Itch behavior induced by chloroquine intradermal administration. It counts as in vivo, mouse. The settings on record: intrathecal pre-administration (i.t., 10 minutes before i.d.), 1 nmol; chloroquine 100 μg/10 μL; FIG. 10. The procedure:
Chloroquine (100 μg/10 μL) was intradermally injected into the waist of each mouse (intradermal injection, i.d.). The reaction of biting, licking or scratching the injected site was defined as itch behavior, and the behavioral time was counted every 5 minutes. […] DMSO (10% solution, dissolved in normal saline) is a solvent for PA-8 or PA-9.

Test [3] concerns Compound 48/80-induced itch behavior in mice. Briefly: Itch behavior induced by Compound 48/80 intradermal administration. It counts as in vivo, mouse. The settings on record: intrathecal pre-administration (i.t., 10 minutes before i.d.), 1 nmol; Compound 48/80 100 μg/10 μL; FIG. 11. The procedure:
Compound 48/80 (100 μg/10 μL) was intradermally injected into the waist of each mouse (intradermal injection, i.d.). The reaction of biting, licking or scratching the injected site was defined as itch behavior, and the behavioral time was counted every 5 minutes. […] DMSO (10% solution, dissolved in normal saline) is a solvent for PA-8 or PA-9.

Test [4] has as its system atopic dermatitis mouse model. Briefly: Atopic dermatitis mouse model (DNFB). It counts as in vivo, ICR mice. The following applies: 30 mg/kg p.o. 30 minutes before 1 hour video observation; FIG. 13. The protocol: The present test was carried out with reference to the method of Kitamura et al. that is a test system published as a method for evaluating itch in animals (Kitamura A., Takata R., Aizawa S., et al.: A murine model of atopic dermatitis can be generated by painting the dorsal skin with hapten twice 14 days apart, Scientific Rep., 8: 5988, 2018).
Five-week-old ICR mice (30 mice) were each placed in a cage, and were then conditioned for 1 week. Thereafter, three days before initiation of the test, the waist of each mouse was shaved. On the experiment start date, for the purpose of destroying the function of skin barrier, tape stripping was carried out, and 0.15% 2,4-dinitrofluorobenzene (DNFB) solution [acetone/olive oil (3:1)] was applied to the shaved waist of each mouse, using a 100-μIL pipette. Seven days later, the 0.15% DNFB solution was applied thereto once again, and two hours later, video observation was carried out for 1 hour. The shaved 30 mice were divided into 5 groups (6 mice per group), namely, a 30 mg/kg PA-8 oral (p.o.) administration group, a 30 mg/kg compound 2o oral (p.o.) administration group, a 30 mg/kg PA-9 oral (p.o.) administration group, a 30 mg/kg compound 3d (p.o.) administration group, and a solvent administration group (VEH: oral administration of 10% DMSO aqueous solution). Oral administration was carried out 30 minutes before initiation of the video observation.
An outline of the procedures of a behavioral experiment using the atopic dermatitis mouse model is shown in FIG. 12, and the results obtained by evaluating the time spent in scratching of each group are shown in FIG. 13.

The subject of another test is psoriasis mouse model. As to the kind of experiment: Psoriasis mouse model (imiquimod). It counts as in vivo, ICR mice. The following applies: 30 mg/kg p.o. 30 minutes before 1 hour video observation; FIG. 14. The procedure: The present test was carried out with reference to the method of van der Fits et al. that is a test system published as a method for evaluating itch in animals (van der Fits L., Mounts S., Voerman J S A., et al.: Imiquimod-Induced Psoriasis-Like Skin Inflammation in Mice Is Mediated via the IL-23/IL-17 Axis, J. Immunol., 182, 5836-5845, 2009).
Five-week-old ICR mice (20 mice) were each placed in a cage, and were then conditioned for 1 week. Thereafter, three days before initiation of the test, the waist of each mouse was shaved. Then, 62.5 mg of commercially available imiquimod cream (5% Beselna Cream; MOCHIDA PHARMACEUTICAL CO., LTD.) was applied onto the shaved waist skin of the mice once a day for 5 days, so as to produce imiquimod-induced psoriasis model. Twenty-four hours after the final application of the cream (Day 5), video observation was carried out for 1 hour. The shaved 20 mice were divided into 5 groups (4 mice per group), namely, a 30 mg/kg PA-8 oral (p.o.) administration group, a 30 mg/kg compound 2o oral (p.o.) administration group, a 30 mg/kg PA-9 oral (p.o.) administration group, a 30 mg/kg compound 3d (p.o.) administration group, and a solvent administration group (VEH: oral administration of 10% DMSO aqueous solution). Oral administration was carried out 30 minutes before initiation of the video observation.

Test [5] relates to serotonin (5-HT)-induced itch mouse model. Briefly: Serotonin (5-HT)-induced itch mouse model. The following applies: intrathecal pre-administration 30 minutes before 5-HT 50 nmol i.d.; PA-8 0.1 or 1 nmol; P6-38 100 pmol; FIG. 1. It counts as in vivo. The procedure: 5-HT (50 nmol, 10 μL) was intradermally injected into the waist of each mouse (intradermal injection, i.d.). The reaction of the mice to bite, lick or scratch the injected site was defined as an itch behavior, and the action time was measured every 5 minutes. […] SLN indicates the effects obtained in the case of administering normal saline instead of 5-HT. ACSF is an abbreviation of an artificial cerebrospinal fluid, which was a solvent for P6-38 and PA-8.

Test [6] has as its system patients with atopic dermatitis. The following applies: patients with high severity, insufficient effect of topical steroids/tacrolimus; cited from earlier work.
Another test concerns mice. Briefly: Itch behavior upon waist intradermal administration of peptide. In kind it is in vivo, mouse. The settings on record: waist intradermal administration 10 μL; PACAP 1 to 1,000 pmol; VIP 100 pmol; FIG. 6. The source says: Accordingly, it is considered that this effect is mediated by the PAC1 receptors (FIG. 6).

For `O=C(NCCc1c[nH]cn1)C1CC(=O)N(c2n[nH]c3ccccc23)C1` (centres unmarked) [PA-9], the “CREB phosphorylation by PACAP (1 nM)” value at mouse PAC1 receptor is given as “suppressed depending on the concentration”. Besides, the “biting, licking or scratching behavior induced by PACAP (100 pmol) intradermal administration” value (“biting … (100 pmol) intradermal administration” below) in test [1] is given as “suppressed in a dose-dependent manner”. Also, the chloroquine-induced itch behavior entry in test [2] is given as “almost completely suppressed”. In addition, the “Compound 48/80-induced itch behavior” value in [3] is listed as “almost completely suppressed”. Moreover, in test [4], the “itch behavior induced by the DNFB treatment (time spent in scratching)” value is given as “significantly suppressed”. For the same molecule, the “itch behavior induced by application of imiquimod (time spent in scratching)” value (“itch behavior induced by application” below) in the test with psoriasis mouse model is recorded as “significantly suppressed”.

Turning to `CCOc1cccc(C2CC(=O)Nc3nc(N)[nH]c(=O)c32)c1` (centres unmarked) [compound 2j, 2-Amino-5-(3-ethoxyphenyl)-5,8-dihydro-3H,6H-pyrido[2,3-d]pyrimidine-4,7-dione], on mouse PAC1 receptor, the “CREB phosphorylation by PACAP (1 nM)” value is given as “suppressed depending on the concentration”.

Consider `Nc1nc2c(c(=O)[nH]1)C(c1cccc(OC(F)(F)F)c1)CC(=O)N2` (centres unmarked) [compound 2o, 2-Amino-5-(3-trifluoromethoxyphenyl)-5,8-dihydro-3H,6H-pyrido[2,3-d]pyrimidine-4,7-dione], for which the “effect of suppressing CREB phosphorylation compared with PA-8” value on mouse PAC1 receptor (10 pM to 10 nM) was “slightly stronger effect of suppressing CREB phosphorylation than PA-8”. The “CREB phosphorylation by PACAP (1 nM)” value at mouse PAC1 receptor is “suppressed CREB phosphorylation”. For the same molecule, the “biting … (100 pmol) intradermal administration” value in test [1] was “suppressed in a dose-dependent manner”. Further, in test [4], the “itch behavior induced by the DNFB treatment (time spent in scratching)” value is given as “significantly suppressed”. Moreover, the “itch behavior induced by application” value in the test with psoriasis mouse model was “significantly suppressed”.

As for `O=C(NCCc1c[nH]cn1)C1CC(=O)N(c2n[nH]c3c(Cl)cccc23)C1` (centres unmarked) [compound 3d, N-[2-(1H-imidazol-4-yl)ethyl]-1-(7-chloro-1H-indazol-3-yl)-5-oxo-3-pyrrolidinecarboxamide], the “CREB phosphorylation by PACAP (1 nM)” value on mouse PAC1 receptor is given as “suppressed depending on the concentration”. Besides, the “biting … (100 pmol) intradermal administration” value in [1] was “suppressed in a dose-dependent manner”. The “itch behavior induced by the DNFB treatment (time spent in scratching)” value in [4] is reported as “significantly suppressed”. Also, the “itch behavior induced by application” value in the test on psoriasis mouse model was “significantly suppressed”.

`O=C1CC[C@@]2(O)[C@H]3Cc4ccc(O)c5c4[C@@]2(CCN3CC2CC2)[C@H]1O5` [naltrexone]: in [1] (subcutaneous administration 1 mg/kg 15 minutes before PACAP, FIG. 7B), the “itch behavior induced by PACAP (100 pmol) intradermal administration” value is reported as “significantly suppressed”.

In the case of PACAP 6-38, the “5-HT-induced itch behavior (bite, lick or scratch the injected site, action time)” value in test [5] is recorded as “did not provide significant effects”.

For “dupilumab: human type anti-human IL-4/IL-13 receptor monoclonal antibody”, the “share of patients for whom the drug is effective” value in test [6] is recorded as “approximately 40%”.

Consider “vasoactive intestinal peptide (HSDAVFTDNYTRLRKQMAVKKYLNSILN; ends and bridges not checked; UniProt P01282 125-152, looked up) [VIP]”, for which, in the test with mice, the “itch behavior (biting, licking or scratching the administered site) caused by the peptide” value is “such effect was not observed”.
